According to the supplement of paper PMC4862054:

Columns and labels:
Conditions in all cases: incubation time: 72 h
CAL-148 [1] = assay: normalised response (% of control), CellTiter-Glo; higher = more viable cells (100 = DMSO, 0 = benzethonium chloride kill control)
Method: (§1)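 DSRT, 72 h incubation, CellTox Green / CellTiter-Glo readout. Signal is normalised to DMSO and benzethonium chloride controls. Value is the normalised response at dose 3.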

SK-BR-3 [2] = assay: as above
Method: as §1

HDQ-P1 [3] = assay: as above
Method: as §1

HCC1937 [4] = assay: as above
Method: as §1

HCC1143 [5] = assay: as above
Method: as §1

CAL-85-1 [6] = assay: as above
Method: as §1

MDA-MB-231 [7] = assay: as above
Method: as §1

MCF-10A [8] = assay: as above
Method: as §1

CAL-51 [9] = assay: as above
Method: as §1

MDA-MB-436 [10] = assay: as above
Method: as §1

Hs578T [11] = assay: as above
Method: as §1

MDA-MB-468 [12] = assay: as above
Method: as §1

DU-4475 [13] = assay: as above
Method: as §1

BT-549 [14] = assay: as above
Method: as §1

HCC1599 [15] = assay: as above
Method: as §1

BT-474 [16] = assay: as above
Method: as §1

MDA-MB-453 [17] = assay: as above
Method: as §1

MFM-223 [18] = assay: as above
Method: as §1

CAL-120 [19] = assay: as above
Method: as §1

HCC1937 [20] = assay: normalised response (% of control), CellTox Green; higher = less cell death (100 = DMSO, 0 = benzethonium chloride kill control)
Procedure, shortened: (§2)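 For each plate, 0.1 % DMSO was set to 100 and a positive kill control to 0. Breast cancer cell lines (20 µl suspension) were seeded into 384-well plates already holding compound at 5 concentrations in 10-fold steps over a 10,000-fold range chosen per compound, and incubated for 72 h. CellTox Green fluorescence at 485/520 nm was read before CellTiter-Glo luminescence, which followed 10 min at room temperature. Each value is the normalised signal at one concentration.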

HCC1143 [21] = assay: as above
Procedure, shortened: as §2

CAL-85-1 [22] = assay: as above
Procedure, shortened: as §2

MDA-MB-231 [23] = assay: as above
Procedure, shortened: as §2

MCF-10A [24] = assay: as above
Procedure, shortened: as §2

CAL-51 [25] = assay: as above
Procedure, shortened: as §2

MDA-MB-436 [26] = assay: as above
Procedure, shortened: as §2

MDA-MB-468 [27] = assay: as above
Procedure, shortened: as §2

DU-4475 [28] = assay: as above
Procedure, shortened: as §2

BT-549 [29] = assay: as above
Procedure, shortened: as §2

HCC1599 [30] = assay: as above
Procedure, shortened: as §2

BT-474 [31] = assay: as above
Procedure, shortened: as §2

MDA-MB-453 [32] = assay: as above
Procedure, shortened: as §2

MFM-223 [33] = assay: as above
Procedure, shortened: as §2

CAL-120 [34] = assay: as above
Procedure, shortened: as §2

CAL-148 [35] = assay: normalised response (% of control), CellTiter-Glo; higher = more viable cells (100 = DMSO, 0 = benzethonium chloride kill control); remark: listed apart in the source
Method: (§3)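 DSRT, 72 h incubation, CellTox Green / CellTiter-Glo readout. Signal is normalised to DMSO and benzethonium chloride controls. Value is the normalised response at the highest dose.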

SK-BR-3 [36] = assay: as above; remark: listed apart in the source
Method: as §3

HDQ-P1 [37] = assay: as above; remark: listed apart in the source
Method: as §3

HCC1937 [38] = assay: as above; remark: listed apart in the source
Method: as §3

HCC1143 [39] = assay: as above; remark: listed apart in the source
Method: as §3

CAL-85-1 [40] = assay: as above; remark: listed apart in the source
Method: as §3

MDA-MB-231 [41] = assay: as above; remark: listed apart in the source
Method: as §3

MCF-10A [42] = assay: as above; remark: listed apart in the source
Method: as §3

CAL-51 [43] = assay: as above; remark: listed apart in the source
Method: as §3

MDA-MB-436 [44] = assay: as above; remark: listed apart in the source
Method: as §3

Hs578T [45] = assay: as above; remark: listed apart in the source
Method: as §3

MDA-MB-468 [46] = assay: as above; remark: listed apart in the source
Method: as §3

DU-4475 [47] = assay: as above; remark: listed apart in the source
Method: as §3

BT-549 [48] = assay: as above; remark: listed apart in the source
Method: as §3

HCC1599 [49] = assay: as above; remark: listed apart in the source
Method: as §3

BT-474 [50] = assay: as above; remark: listed apart in the source
Method: as §3

MDA-MB-453 [51] = assay: as above; remark: listed apart in the source
Method: as §3

MFM-223 [52] = assay: as above; remark: listed apart in the source
Method: as §3

CAL-120 [53] = assay: as above; remark: listed apart in the source
Method: as §3

CAL-148 [54] = assay: normalised response (% of control), CellTox Green; higher = less cell death (100 = DMSO, 0 = benzethonium chloride kill control)
Procedure, shortened: as §2

HDQ-P1 [55] = assay: as above
Procedure, shortened: as §2

Hs578T [56] = assay: as above
Procedure, shortened: as §2

Structure (SMILES) | normalised response (HCC1937 [20]) | normalised response (HCC1143 [21]) | normalised response (CAL-85-1 [22]) | normalised response (MDA-MB-231 [23]) | normalised response (MCF-10A [24]) | normalised response (CAL-51 [25]) | normalised response (MDA-MB-436 [26]) | normalised response (MDA-MB-468 [27]) | normalised response (DU-4475 [28]) | normalised response (BT-549 [29]) | normalised response (HCC1599 [30]) | normalised response (BT-474 [31]) | normalised response (MDA-MB-453 [32]) | normalised response (MFM-223 [33]) | normalised response (CAL-120 [34]) | normalised response (CAL-148 [35]) | normalised response (SK-BR-3 [36]) | normalised response (HDQ-P1 [37]) | normalised response (HCC1937 [38]) | normalised response (CAL-148 [54]) | further results
O=C1c2c(O)ccc(O)c2C(=O)c2c(NCCNCCO)ccc(NCCNCCO)c21 [Mitoxantrone] (10 nM) | 91.8% | 111% | 96.2% | 104% | 107% | 104% | 93.1% | 129% | 99.9% | 94.3% | 96.5% | 101% | 107% | 97.3% | 101% |  |  |  |  |  | normalised response (CAL-148 [1]): 98.6%; normalised response (SK-BR-3 [2]): 89.1%; normalised response (HDQ-P1 [3]): 106%; normalised response (HCC1937 [4]): 101%; normalised response (HCC1143 [5]): 104%; normalised response (CAL-85-1 [6]): 97.8%; normalised response (MDA-MB-231 [7]): 99.8%; normalised response (MCF-10A [8]): 96.2%; normalised response (CAL-51 [9]): 93.5%; normalised response (MDA-MB-436 [10]): 92.7%; normalised response (Hs578T [11]): 102%; normalised response (MDA-MB-468 [12]): 95.6%; normalised response (DU-4475 [13]): 95.8%; normalised response (BT-549 [14]): 96.7%; normalised response (HCC1599 [15]): 97.2%; normalised response (BT-474 [16]): 96.1%; normalised response (MDA-MB-453 [17]): 99.3%; normalised response (MFM-223 [18]): 94%; normalised response (CAL-120 [19]): 104%
c1cc(CN2CCCNCCNCCCNCC2)ccc1CN1CCCNCCNCCCNCC1 [Plerixafor] (10000 nM) | 104% | 101% | 117% | 96% | 94.2% | 85.7% | 95.5% | 69.7% | 92.3% | 52.3% | 98.2% | 99.7% | 80.5% | 96.9% | 95.2% | 91.8% | 79.1% | 98.2% | 97.3% | 98.5% | normalised response (HCC1143 [39]): 102%; normalised response (CAL-85-1 [40]): 96%; normalised response (MDA-MB-231 [41]): 94.2%; normalised response (MCF-10A [42]): 82.6%; normalised response (CAL-51 [43]): 124%; normalised response (MDA-MB-436 [44]): 97.9%; normalised response (Hs578T [45]): 92.3%; normalised response (MDA-MB-468 [46]): 106%; normalised response (DU-4475 [47]): 88.6%; normalised response (BT-549 [48]): 107%; normalised response (HCC1599 [49]): 99.8%; normalised response (BT-474 [50]): 90.9%; normalised response (MDA-MB-453 [51]): 78.3%; normalised response (MFM-223 [52]): 87.2%; normalised response (CAL-120 [53]): 108%; normalised response (HDQ-P1 [55]): 104%; normalised response (Hs578T [56]): 102%
Cn1cc(CNCC2CCN(c3ncc(C(=O)NO)cn3)CC2)c2ccccc21 [Quisinostat] (1000 nM) | 82% | 57.9% | -55.4% | -24.8% | 56.8% | -21.8% | 91.8% | 31.9% | 77.2% | 64.2% | 71.7% | 35.7% | 87.9% | 66.2% | -15.2% | 0.34% | 0.06% | 25.7% | 22.7% | -22.9% | normalised response (HCC1143 [39]): 13.9%; normalised response (CAL-85-1 [40]): 4.67%; normalised response (MDA-MB-231 [41]): 6.24%; normalised response (MCF-10A [42]): 10.7%; normalised response (CAL-51 [43]): 7.13%; normalised response (MDA-MB-436 [44]): 34.8%; normalised response (Hs578T [45]): 5.64%; normalised response (MDA-MB-468 [46]): 10.2%; normalised response (DU-4475 [47]): 15.9%; normalised response (BT-549 [48]): 10.2%; normalised response (HCC1599 [49]): 6.82%; normalised response (BT-474 [50]): 6.87%; normalised response (MDA-MB-453 [51]): 2.11%; normalised response (MFM-223 [52]): 32.8%; normalised response (CAL-120 [53]): 10.8%; normalised response (HDQ-P1 [55]): 52.1%; normalised response (Hs578T [56]): 9.9%
CC(C)N(CCCNC(=O)Nc1ccc(C(C)(C)C)cc1)C[C@H]1O[C@@H](n2cc(Br)c3c(N)ncnc32)[C@H](O)[C@@H]1O [SGC0946] (100 nM) |  | 88.1% | 103% | 73.8% | 99% | 95.6% | 95.2% | 108% | 98.8% | 101% | 96.4% | 98.2% | 99.1% | 97.4% | 95.6% |  |  |  |  | 100% | normalised response (CAL-148 [1]): 86.6%; normalised response (SK-BR-3 [2]): 90%; normalised response (HDQ-P1 [3]): 93%; normalised response (HCC1937 [4]): 94.4%; normalised response (HCC1143 [5]): 101%; normalised response (CAL-85-1 [6]): 102%; normalised response (MDA-MB-231 [7]): 96%; normalised response (MCF-10A [8]): 96%; normalised response (CAL-51 [9]): 91.1%; normalised response (MDA-MB-436 [10]): 99.4%; normalised response (Hs578T [11]): 88.5%; normalised response (MDA-MB-468 [12]): 93.8%; normalised response (DU-4475 [13]): 98%; normalised response (BT-549 [14]): 91.3%; normalised response (HCC1599 [15]): 93.7%; normalised response (BT-474 [16]): 96%; normalised response (MDA-MB-453 [17]): 91%; normalised response (MFM-223 [18]): 95.2%; normalised response (CAL-120 [19]): 101%
CC[C@@]1(O)C(=O)OCc2c1cc1n(c2=O)Cc2cc3c(CN(C)C)c(O)ccc3nc2-1 [Topotecan] (10000 nM) | 18.6% | 87.9% | 42.3% | 46.1% | 55.5% | -18.1% | 29.1% | 29.5% | 60.8% | 56.9% | 71.7% | 88.4% | 85.1% | 43.5% | 49.3% | 0.39% | 19.6% | 54.5% | 15.3% | 7.1% | normalised response (HCC1143 [39]): 26.9%; normalised response (CAL-85-1 [40]): 21.6%; normalised response (MDA-MB-231 [41]): 43.1%; normalised response (MCF-10A [42]): 39%; normalised response (CAL-51 [43]): 15.2%; normalised response (MDA-MB-436 [44]): 21%; normalised response (Hs578T [45]): 55.2%; normalised response (MDA-MB-468 [46]): 4.47%; normalised response (DU-4475 [47]): 0.66%; normalised response (BT-549 [48]): 22.1%; normalised response (HCC1599 [49]): 9.36%; normalised response (BT-474 [50]): 47.8%; normalised response (MDA-MB-453 [51]): 33.2%; normalised response (MFM-223 [52]): 61.7%; normalised response (CAL-120 [53]): 37%; normalised response (HDQ-P1 [55]): 69.8%; normalised response (Hs578T [56]): 102%
